These results are taken from US7964531B2, “3-phenoxy-4-pyridazinol derivatives and herbicidal composition containing the same” (Mitsui Chemicals Agro, Inc., priority 2001, dated 2011).

The structures appear in SMILES notation. Structures can show the parent of a compound that is named as a salt.

As for `Cc1c(Cl)ccc(Br)c1Oc1nnc(Cl)cc1O` [Compound No. 1053, 3-(6-Bromo-3-chloro-2-methylphenoxy)-6-chloro-4-pyridazinol], the melting point (in general, the temperature of the solid-liquid transition) is 254 to 260 °C.

As to `COC(=O)c1ccccc1Oc1nnc(Cl)cc1O` [Compound No. 339, Methyl 2-[(6-chloro-4-hydroxy-3-pyridazinyl)oxy]benzoate], the melting point was in the range of 188 to 191 °C.

Compound `Cc1cccc(C2CC2)c1Oc1nnc(Cl)cc1OC(=O)OCC(C)C` [Compound No. 1770, 6-Chloro-3-(2-cyclopropyl-6-methylphenoxy)-4-pyridazinyl isobutyl carbonate] returned a melting point of 72 to 74 °C.

The compound `Oc1cc(Cl)nnc1Oc1ccc(Cl)cc1Cl` [Compound No. 552, 6-Chloro-3-(2,4-dichlorophenoxy)-4-pyridazinol] showed a melting point of 233 to 237 °C. To `CCOC(=O)Oc1cc(Cl)nnc1Oc1ccccc1C` [Compound No. 1706, 6-Chloro-3-(2-methylphenoxy)-4-pyridazinyl ethyl carbonate] belongs 73 to 74 °C; to `Cc1ccc(C(C)C)c(Oc2nnc(Cl)cc2O)c1` [Compound No. 640, 6-Chloro-3-(2-isopropyl-5-methylphenoxy)-4-pyridazinol], 193 to 195 °C; to `Cc1c(F)cccc1Oc1nnc(Cl)cc1O` [Compound No. 453, 6-Chloro-3-(3-fluoro-2-methylphenoxy)-4-pyridazinol], 242 to 244 °C. The same measure for `Oc1cc(Cl)nnc1Oc1ccccc1C1CCCC1` [Compound No. 292, 6-Chloro-3-(2-cyclopentylphenoxy)-4-pyridazinol]: 178 to 180 °C; for `CC(C)c1cc(Br)ccc1Oc1nnc(Cl)cc1O` [Compound No. 566, 3-(4-Bromo-2-isopropylphenoxy)-6-chloro-4-pyridazinol]: 215 to 225 °C; for `Cc1cccc(I)c1Oc1nnc(Cl)cc1O` [Compound No. 780, 6-Chloro-3-(2-iodo-6-methylphenoxy)-4-pyridazinol]: 250 to 252 °C. `Cc1ccccc1Oc1nnc(Br)cc1O` [Compound No. 2411, 6-Bromo-3-(2-methylphenoxy)-4-pyridazinol] gave a melting point of 197 to 198 °C. The same measure for `COc1ccccc1Oc1nnc(Cl)cc1O` [Compound No. 385, 6-Chloro-3-(2-methoxyphenoxy)-4-pyridazinol]: 191 to 194 °C. For the compound `CCCCCc1ccccc1Oc1nnc(Cl)cc1O` [Compound No. 137, 6-Chloro-3-(2-pentylphenoxy)-4-pyridazinol], the melting point was 151.5 to 152.5 °C.

Turning to `COc1ccc(F)cc1Oc1nnc(Cl)cc1O` [Compound No. 700, 6-Chloro-3-(5-fluoro-2-methoxyphenoxy)-4-pyridazinol], the melting point was 187 to 191 °C. For `Cc1ccc2c(c1Oc1nnc(Cl)cc1O)OCC2` [Compound No. 1096, 6-Chloro-3-[(6-methyl-2,3-dihydro-1-benzofuran-7-yl)oxy]-4-pyridazinol], the melting point was in the range of 217 to 219 °C.

Regarding `Cc1ccc(S(=O)(=O)Oc2cc(Cl)nnc2Oc2ccc(C)cc2C)cc1` [Compound No. 2247, 6-Chloro-3-(2,4-dimethylphenoxy)-4-pyridazinyl 4-methylbenzenesulfonate], the melting point lay in the range of 80 to 81 °C.

Take `CC(C)c1ccc(Oc2nnc(Cl)cc2O)cc1` [Compound No. 432, 6-Chloro-3-(4-isopropylphenoxy)-4-pyridazinol]: the melting point lay in the range of 233 to 235 °C. `Cc1cc(C)c(C)c(Oc2nnc(Cl)cc2O)c1C` [Compound No. 1125, 6-Chloro-3-(2,3,5,6-tetramethylphenoxy)-4-pyridazinol] yielded a melting point of 278 to 283 °C.

`Oc1cc(Cl)nnc1Oc1c(C2CC2)ccc2ccoc12` [Compound No. 1102, 6-Chloro-3-[(6-cyclopropyl-1-benzofuran-7-yl)oxy]-4-pyridazinol] gave a melting point of 175 to 180 °C. To `Cc1c(F)ccc(C2CC2)c1Oc1nnc(Cl)cc1O` [Compound No. 1052, 6-Chloro-3-(6-cyclopropyl-3-fluoro-2-methylphenoxy)-4-pyridazinol] belongs 230 to 231 °C; to `Cc1cc(Oc2nnc(Cl)cc2O)cc(C(C)C)c1` [Compound No. 1000, 6-Chloro-3-(3-isopropyl-5-methylphenoxy)-4-pyridazinol], 204 to 206 °C; to `Cc1ccccc1Oc1nnc(C2CC2)cc1O` [Compound No. 2423, 6-Cyclopropyl-3-(2-methylphenoxy)-4-pyridazinol], 214 to 215 °C. To `Cc1ccc(S(=O)(=O)Oc2c(Cl)cnnc2Oc2ccccc2C)cc1` (as salt: benzene sulfonate) [Compound No. 66, 5-Chloro-3-(2-methylphenoxy)-4-pyridazinyl 4-methylbenzene sulfonate] belongs 140 to 143 °C; to `Cc1ccc(Cl)cc1Oc1nnc(Cl)cc1O` [Compound No. 618, 6-Chloro-3-(5-chloro-2-methylphenoxy)-4-pyridazinol], 174 to 180 °C; to `CC(C)(C)c1ccccc1Oc1nnc(Cl)cc1O` [Compound No. 136, 3-(2-tert-Butylphenoxy)-6-chloro-4-pyridazinol], 215 to 216 °C. In the case of `Cc1ccc(S(=O)(=O)Oc2cc(Cl)nnc2Oc2c(C)cccc2C2CC2)cc1` [Compound No. 2265, 6-Chloro-3-(2-cyclopropyl-6-methylphenoxy)-4-pyridazinyl 4-methylbenzenesulfonate], the melting point is 85 to 87 °C. To `Oc1cc(Cl)nnc1Oc1ccccc1C1(c2ccccc2)CC1` [Compound No. 184, 6-Chloro-3-[2-(1-phenylcyclopropyl)phenoxy]-4-pyridazinol] belongs 172 to 173 °C. The compound `Cc1cc(Br)c(C)c(Br)c1Oc1nnc(Cl)cc1O` [Compound No. 1118, 6-Chloro-3-(2,4-dibromo-3,6-dimethylphenoxy)-4-pyridazinol] displayed a melting point of 241 to 248 °C.

The compound `Cc1cc(C)cc(C(=O)Oc2cc(Cl)nnc2Oc2c(C)cccc2C2CC2)c1` [Compound No. 3243, 6-Chloro-3-(2-cyclopropyl-6-methylphenoxy)-4-pyridazinyl 3,5-dimethylbenzoate] showed a melting point of 117 to 119 °C.

In turn, `O=Cc1cccc(Oc2nnc(Cl)cc2O)c1` [Compound No. 421, 3-[(6-Chloro-4-hydroxy-3-pyridazinyl)oxy]benzaldehyde] came in with a melting point of 188 to 192 °C. To `CCc1cccc(I)c1Oc1nnc(Cl)cc1O` [Compound No. 781, 6-Chloro-3-(2-ethyl-6-iodophenoxy)-4-pyridazinol] belongs 242 to 244 °C; to `CCSc1cc(Oc2nnc(Cl)cc2O)c(Br)cc1Br` [Compound No. 2596, 6-Chloro-3-[2,4-dibromo-5-(ethylsulfanyl)phenoxy]-4-pyridazinol], 225 to 228 °C. The same measure for `CCCCCCCCCCCCCCC(=O)Oc1cc(Cl)nnc1Oc1c(C)cccc1C1CC1` [Compound No. 1260, 6-Chloro-3-(2-cyclopropyl-6-methylphenoxy)-4-pyridazinyl pentadecanoate]: 35 to 37 °C; for `Cc1ccc(S(=O)(=O)Oc2cc(Cl)nnc2Oc2ccc(Cl)cc2C)cc1` [Compound No. 2246, 6-Chloro-3-(4-chloro-2-methylphenoxy)-4-pyridazinyl 4-methylbenzenesulfonate]: 115 to 116 °C; for `C[Si](C)(C)c1ccc(Oc2nnc(Cl)cc2O)cc1`: 197 to 199 °C. The same measure for `Cc1cccc(C2CC2)c1Oc1nnc(Cl)cc1OC(=O)c1cnccc1C(F)(F)F` [Compound No. 3462, 6-Chloro-3-(2-cyclopropyl-6-methylphenoxy)-4-pyridazinyl 4-(trifluoromethyl)nicotinate]: 92 to 93 °C. In the case of `CCN(CC)C(=O)Oc1cc(Cl)nnc1Oc1c(C)cccc1C1CC1`, the melting point was 119 to 121 °C. To `CC(C)c1cccc([N+](=O)[O-])c1Oc1nnc(Cl)cc1O` [Compound No. 911, 6-Chloro-3-(2-isopropyl-6-nitrophenoxy)-4-pyridazinol] belongs 205 to 209 °C. To `Cc1cccc(Oc2nnc(Cl)cc2O)c1` [Compound No. 413, 6-Chloro-3-(3-methylphenoxy)-4-pyridazinol] belongs 205 to 208 °C; to `Cc1cccc(C2CC2)c1Oc1nnc(Cl)cc1OC(=O)N(CCC#N)CCC#N`, 159 to 161 °C; to `Oc1cc(Cl)nnc1Oc1cccc2occc12` [Compound No. 531, 3-(1-benzofuran-4-yloxy)-6-chloro-4-pyridazinol], 220 to 225 °C. In turn, `CON=C(C)c1ccccc1Oc1nnc(Cl)cc1O` [Compound No. 334, 1-{2-[(6-Chloro-4-hydroxy-3-pyridazinyl)oxy]phenyl}ethanone O-methyloxime] had a melting point of 165 to 167 °C. To `Cc1ccc(Oc2nnc(Cl)cc2O)c(C(C)(C)C)c1` [Compound No. 567, 3-(2-tert-Butyl-4-methylphenoxy)-6-chloro-4-pyridazinol] belongs 230 to 236 °C. To `CC1(C)CC1c1ccccc1Oc1nnc(Cl)cc1O` (stereo not drawn) [Compound No. 267, 6-Chloro-3-[2-(2,2-dimethylcyclopropyl)phenoxy]-4-pyridazinol] belongs 187 to 188 °C.

Take `CC(C)c1cc(Oc2nnc(Cl)cc2O)cc(C(C)C)c1` [Compound No. 642, 6-Chloro-3-(3,5-diisopropylphenoxy)-4-pyridazinol]: the melting point was in the range of 231 to 235 °C. The same measure for `Oc1cc(Cl)nnc1Oc1c(F)cccc1C1CC1` [Compound No. 719, 6-Chloro-3-(2-cyclopropyl-6-fluorophenoxy)-4-pyridazinol]: 200 to 203 °C; for `CCC(C)c1ccccc1Oc1nnc(Cl)cc1OS(=O)(=O)c1ccc(C)cc1` (stereo not drawn) [Compound No. 2223, 3-(2-s-Butylphenoxy)-6-chloro-4-pyridazinyl 4-methylbenzenesulfonate]: 65 to 66 °C; for `Oc1cc(Cl)nnc1Oc1cccc2ccccc12` [Compound No. 527, 6-Chloro-3-(1-naphthyloxy)-4-pyridazinol]: 243 to 245 °C.
